# Results published in patent US9221800B2, “Isoxazole treatments for diabetes” (The Board of Regents of the University of Texas System, priority 2011, dated 2015).
# Experiments:
# Format in all cases: cell-based, mouse
# MIN6 cells = experiment: Immunoblotting of MIN6 whole cell lysates; settings: MIN6 pretreated with inhibitors 16 h (FIG. 4A); nifedipine in combination with the chelating agent BAPTA
# Method: FIGS. 2[…]-1) activates insulin expression and improves β cell function in MIN6 cells. (FIG. 2A) Dose-response relationship of MIN6 cells treated with 5-80 μM Isx for 24 h or DMSO (0.08%-similar to the highest concentration of Isx). Whole cell lysates (40 μg) were subjected to immunoblotting using antibodies against BETA2NeuroD1, MafA, PDX-1, pERK1/2 (pT183/[…]), acetylated histones […] and ACH3K9 and total histone H3. (FIG. 2B) Quantitative RT-PCR of murine insulin1 and insulin2 gene expression in MIN6 cells treated with Isx for 24 h as in FIG. 2A. […] (FIG. 2D) Insulin content measured by ELISA in MIN6 cells treated with Isx for 24 or 48 h. (FIG. 2E) GSIS induced by glucose, amino acids (AA) and Exendin-4 (Ex-4) singly or in combination in MIN6 cells pretreated with Isx for 48 h. FIGS. 4[…]-1) is a HAT activator. (FIG. 4A) Immunoblots of acetylated histones in MIN6 cells pretreated with the indicated inhibitors for 16 h and then treated with vehicle or Isx. (FIGS. 4B-C) HDAC (FIG. 4B) and HAT (FIG. 4C) activities in 50 μg of nuclear extract protein from MIN6 cells treated with Isx or DMSO for 24 h. Trichostatin A (TSA; 2 μM) was added at as a positive control. HeLa nuclear extract also was included as a positive control. […] Statistical analysis was performed using Student's t test as in FIGS. 1A-E. *P<0.05; **P<0.01. (FIG. 4G) Simplified view of the actions of Isx. FIG. 6. Time course of […]-1) treatment in MIN6 cells. Immunoblotting of whole cell extracts from MIN6 cells grown for 24 h in complete DMEM containing […] and treated with 20 μM Isx for from 15 min to 24 h. The control (0 min) was treated with DMSO for 24 h. MIN6 cells were cultured in DMEM (Gibco), containing 25 mM glucose, 10% fetal bovine serum, 10 mM Hepes pH 7.4, 10.2 mM L-glutamine, […] sodium pyruvate, 2.5 mM β-mercaptoethanol, 100 U/ml penicillin and 100 μg/ml streptomycin at 37° C. in 10% CO2. Human islets were obtained from the ICR Basic Science Islet Distribution and from the University of Alabama, Birmingham Islet Resource Facility and were cultured in RPMI 1640 with 11 mM glucose for up to 1 year. The medium was changed twice weekly and the islets were subcultured when they reached 90% confluence. For Isx treatments, cells were incubated in medium containing either Isx or the equivalent volume of DMSO vehicle (0.04%). To measure GSIS, cells were placed in Krebs-Ringer bicarbonate/Hepes containing 0.1% bovine serum albumin and 2 mM glucose for 2 h, and stimulated for 15 min with 20 mM glucose, a 1× amino-acid mixture (concentrations as in DMEM), or 50 nM Exendin-4.
# HAT = HAT activity in nuclear extracts of treated MIN6 cells; settings: MIN6 cells expressing p300; 10 μM U0126
# Method: (§1) The histone acetyl transferase and deacetylase activities were measured in 50 μg of nuclear protein using the HAT and HDAC activity colorimetric assay kits from Biovision Biotechnology according to manufacturer's recommendations.
# HDAC = HDAC activity in nuclear extracts of treated MIN6 cells; settings: 24 h treatment, TSA 2 μM positive control (FIG. 4B)
# Method: as §1
Molecule,effect on Isx-induced acetylation of H4 (MIN6 cells),effect on acetylation of H3 on lysines 9 and 14 induced by Isx (MIN6 cells),effect on the Isx-induced increase in HAT activity (HAT),HDAC activity in MIN6 cells (HDAC)
"O=C(NOC[C@H](O)CO)c1ccc(F)c(F)c1Nc1ccc(I)cc1F [PD325901, reference compound]",inhibited,little effect,,
"N#CC(=C(/N)Sc1ccccc1N)/C(C#N)=C(\N)Sc1ccccc1N [U0126, reference compound]",inhibited,little effect,inhibited,
"COC[C@H]1OC(=O)c2coc3c2[C@@]1(C)C1=C(C3=O)[C@@H]2CCC(=O)[C@@]2(C)C[C@H]1OC(C)=O [wortmannin, reference compound]",no effect,no effect,,
trichostatin A [reference compound],,,,inhibited
